Test results taken from the NIST ThermoML archive (doi:10.1016/j.fluid.2005.12.017).
Numbers after ± are expanded uncertainties.

Legend:
[1] = for molar volume: 101.33 kPa, Pycnometric method; for Normal melting temperature: DTA
[2] = Molar enthalpy of transition or fusion; settings: Crystal; DSC

Row | molar volume ([1]; 338.15 K, Crystal) | molar volume ([1]; 338.15 K, Liquid) | Normal melting temperature ([1]; Crystal) | Molar enthalpy of transition or fusion [2] | molar volume ([1]; 323.15 K, Crystal) | molar volume ([1]; 323.15 K, Liquid) | SMILES
1 | 0.00087 ± 1e-05 m3/mol | 0.00093 ± 1e-05 m3/mol | 64.2 ± 0.5 °C | 28.9 ± 0.478 kcal/mol |  |  | CCCCCCCCCCCCCCCC(=O)OCC(COC(=O)CCCCCCCCCCCCCCC)OC(=O)CCCCCCCCCCCCCCC [1,2,3-propanetriyl tri(hexadecanoate)]
2 |  |  | 49.4 ± 0.5 °C | 19.6 ± 0.478 kcal/mol | 0.0009 ± 1e-05 m3/mol | 0.00095 ± 1e-05 m3/mol | COC1=C(OC)C(=O)C(C/C=C(\C)CC/C=C(\C)CC/C=C(\C)CC/C=C(\C)CC/C=C(\C)CC/C=C(\C)CC/C=C(\C)CC/C=C(\C)CC/C=C(\C)CCC=C(C)C)=C(C)C1=O [Coenzyme Q10]
